Measured values published in PMC4556614 (PLoS ONE, 2015).

How the values were obtained:
OCT2 [1] = target: T1, OCT2 (Homo sapiens, UniProt O15244); experiment: Inhibition of OCT2-mediated [3H]MPP+ uptake in HEK-OCT2 cells; details: MPP+ 50 μM, 3 min, net uptake HEK-OCT2 minus HEK-VC; for % Inhibition of OCT2-dependent MPP+ uptake at 20 µM (mean ± SEM): test drug 20 µM; for % Inhibition of OCT2-dependent MPP+ uptake at 200 µM (mean ± SEM): test drug 200 µM
OCT2 [2] = tested on: OCT2; design: method as in earlier work; details: drug 20 μM; HEK 293 cells overexpressing OCT2; ref 7 (Kido et al.); cited from earlier work
OCT2 [3] = target: T1, OCT2; experiment: Inhibition of OCT2-mediated [14C]metformin uptake in HEK-OCT2 cells; details: for IC50 values, OCT2-mediated metformin transport (in words): potent inhibitors, confirmed previous findings [19]-[21]
[4] = ref 16 (Regenthal et al.), cited from earlier work; for Cmax,u: Cmax of unbound drug in humans; for Cmax: maximum steady-state plasma concentration in humans
OCT2 [5] = details: cited from earlier work
[6] = coadministration of lansoprazole; cited from earlier work
OCT2 [7] = target: T1, OCT2; experiment: Time-dependent substrate uptake into HEK-OCT2 and vector control cells; format: cell-based; design: expressed in transfected cells; host or cells: HEK 293 cells, stably transfected (HEK-OCT2); vector control HEK-VC; details: metformin 1000 μM; for Time until OCT2-mediated uptake reached steady-state: HEK-OCT2 cells
Procedure: For the transport assays HEK cell lines stably transfected with human OCT2 (HEK-OCT2) or the vector only (HEK-VC) were used. The HEK-OCT2 cell line was established and characterized previously. HEK-OCT2 and HEK-VC cells were seeded in poly-D-lysine (Sigma Aldrich, Taufkirchen, Germany) coated 48-well-plates at a density of 1.2 x 10^5 cells/well. […] In a total incubation volume of 125 μL the final concentrations of the test drugs were 20 or 200 μM. […] Uptake was stopped by washing the cells three times with ice-cold uptake buffer. Afterwards, cells were lysed with 5 mM Tris buffer (pH 7.3) containing 0.1% Triton X-100. The intracellular accumulation of radioactivity was determined by liquid scintillation counting (PerkinElmer, Rodgau-Jügesheim, Germany) and protein concentration of each lysate was measured with bicinchonic acid assay (BCA Protein Assay Kit, Thermo Fisher Scientific, Waltham, MA, USA). We performed two to eight experiments each on at least two separate days, i.e., n = 4–16. […] The percentage of uptake inhibition was calculated as: Inhibition (%) = 100 –(V / V 0 * 100), where V and V 0 are the net uptake rates with and without test drug.
Data are presented as the mean ± standard error (4–8 experiments each on two to four separate days, i.e., n = 8–29).

T1 sequence (O15244 whole entry): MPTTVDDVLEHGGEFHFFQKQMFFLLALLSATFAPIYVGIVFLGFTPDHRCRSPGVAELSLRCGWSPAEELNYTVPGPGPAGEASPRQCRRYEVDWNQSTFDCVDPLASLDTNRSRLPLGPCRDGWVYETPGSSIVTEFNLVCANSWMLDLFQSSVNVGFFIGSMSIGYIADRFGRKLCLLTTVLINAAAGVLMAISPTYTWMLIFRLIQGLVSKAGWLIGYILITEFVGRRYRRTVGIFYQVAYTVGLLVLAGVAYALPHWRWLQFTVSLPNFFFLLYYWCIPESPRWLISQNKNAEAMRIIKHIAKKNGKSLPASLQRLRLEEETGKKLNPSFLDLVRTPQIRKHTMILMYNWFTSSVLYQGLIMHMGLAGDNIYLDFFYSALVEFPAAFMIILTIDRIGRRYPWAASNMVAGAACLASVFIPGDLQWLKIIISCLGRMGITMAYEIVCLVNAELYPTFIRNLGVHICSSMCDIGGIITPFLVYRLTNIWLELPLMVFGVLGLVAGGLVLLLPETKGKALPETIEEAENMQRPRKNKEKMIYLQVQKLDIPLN

SMILES | % Inhibition of OCT2-dependent MPP+ uptake at 20 µM (mean ± SEM) (OCT2 [1]) | % Inhibition of OCT2-dependent MPP+ uptake at 200 µM (mean ± SEM) (OCT2 [1]) | Inhibition of OCT2-mediated ASP+ uptake (OCT2 [2]) | % Inhibition of OCT2-dependent MF uptake at 200 µM (mean ± SEM) (OCT2 [3]; human, pH 7.3) | IC50 (OCT2 [3]; human, pH 7.3) | IC50 values, OCT2-mediated metformin transport (in words) (OCT2 [3]) | Cmax,u [4] | Cmax [4] | other results
CN(C)CCC=C1c2ccccc2CCc2ccccc21 [Amitriptyline] | 58.4 ± 2.8% | 97.8 ± 0.6% | more than 50% | 101.7 ± 2.2% | 510 nM | low micromolar range | 40 nM | 1100 nM | % Inhibition of OCT2-dependent MPP+ uptake at 20 µM (mean ± SEM) (OCT2 [1]; listed as amitriptyline): more than 50%; Cmax,u / IC50 (OCT2 [3]): 0.08
CN/C(=N/CCSCc1nc[nH]c1C)NC#N [Cimetidine] | – | – | – | – | – | – | – | – | Affinity for MATEs compared with OCT2 (OCT2 [5]): higher affinity for MATEs than for OCT2; Inhibitor of OCT2 (in words) (OCT2 [5]): rather weak inhibitor
CN(C)CCCN1c2ccccc2CCc2ccc(Cl)cc21 [Clomipramine] | 90.3 ± 1.5% | 98.8 ± 3.0% | more than 50% | 99.5 ± 3.7 | – | – | – | – | –
CN(C)CCC=C1c2ccccc2COc2ccccc21 [Doxepin] | – | – | more than 50% | 99.3 ± 0.7 | 250 nM | – | 250 nM | 1300 nM | –
Cc1c(OCC(F)(F)F)ccnc1C[S+]([O-])c1nc2ccccc2[nH]1 (stereo not shown) [Lansoprazole] | 22.1 ± 5.3% | 90.1 ± 1.8% | – | 103.0 ± 2.7 | 3280 nM | low micromolar range | 1200 nM | 6000 nM | % Inhibition of OCT2-dependent MF uptake at 20 µM (mean ± SEM) (OCT2 [3]; human, pH 7.3): 87.7 ± 1.6; Decrease of metformin renal clearance [6]: 13%; Increase of AUC of metformin [6]: 17%; Increase of Cmax of metformin [6]: 15%
C[n+]1ccc(-c2ccccc2)cc1 [MPP^+, 1-methyl-4-phenylpyridinium] | – | – | – | – | – | – | – | – | Uptake ratio OCT2 cells vs. vector control cells (OCT2 [7]; MPP+ 50 μM, 3 min, no inhibitor): 3.2; Time until OCT2-mediated uptake reached steady-state (OCT2 [7]; MPP+ 50 μM): approximately 15 min
CN(C)C(=N)N=C(N)N [Metformin] | – | – | – | – | – | – | – | – | Time until OCT2-mediated uptake reached steady-state (OCT2 [7]; MPP+ 50 μM): approximately 15 min; Uptake of metformin in vector control cells (OCT2 [7]; 3 min, HEK-VC, no inhibitor): 227 ± 22.1 pmol/mg/min; Uptake of metformin in HEK-OCT2 cells (OCT2 [7]; 3 min, no inhibitor): 5946 ± 294.0 pmol/mg/min
COc1ccc2[nH]c([S+]([O-])Cc3ncc(C)c(OC)c3C)nc2c1 (stereo not shown) [Omeprazole] | 56.0 ± 4.0% | 93.0 ± 0.9% | more than 50% | 107.4 ± 4.3 | – | low micromolar range | – | – | % Inhibition of OCT2-dependent MPP+ uptake at 20 µM (mean ± SEM) (OCT2 [1]; listed as omeprazole): more than 50%
